Laboratory results as given in patent US20180042941A1, “CABAZITAXEL AND ITS USE FOR TREATING METASTATIC PROSTATE CANCERS” (AVENTIS PHARMA S.A., priority 2013, published 2018).

What was measured:
[1] = system: tumor models poorly or not sensitive to chemotherapy, including taxanes; details: cited from earlier work
[2] = system: patients treated with cabazitaxel; details: cited from earlier work
[3] = system: patient with metastatic prostate cancer; assay: case reports of patients treated with cabazitaxel in combination with prednisone or prednisolone (adverse events); details: for WBC level: units not provided
Experimental: This example relates to the treatment of a patient with metastatic prostate cancer, according the following dosage: cabazitaxel (25 mg/m^2)+prednisone 10 mg daily+budesonide (9 mg daily).
This example relates to a patient (with prostate carcinoma) who initiated treatment with study drug cabazitaxel (20 mg/m^2) and prednisone (10 mg) (cycle 1).
This example relates to the treatment of a patient with a metastatic carcinoma of the prostate, according the following dosage: cabazitaxel 20 mg/m^2 intravenously (day 1) every 3 weeks and prednisone 10 mg PO daily, from day 1 continuously.
The treatment was as follows: cabazitaxel 20 mg/m^2 on day 1 every 3 weeks in combination with prednisone/prednisolone.
The following treatment was followed: cabazitaxel 25 mg/m^2 on day 1 every 3 weeks in combination with prednisone/prednisolone.
The dosage regimen was as follows: cabazitaxel 25 mg/m^2 intravenous infusion over 1 hour on day 1 of each 3 week cycle as well as oral prednisone/prednisolone 10 mg daily.
The following treatment was applied: cabazitaxel 20 mg/m^2 intravenously every 3 weeks, in combination with oral prednisone or prednisolone 10 mg daily.
This example relates to a patient with metastatic prostate cancer. The following treatment was followed: cabazitaxel 25 mg/m^2 intravenously (day 1) every 3 weeks and prednisone 10 mg PO daily, from day 1 continuously.
This patient was treated with cabazitaxel 20 mg/m^2 on day 1 every 3 weeks in combination with prednisone/prednisolone.
The following therapy dosage was used: cabazitaxel 25 mg/m^2 intravenously (day 1) every 3 weeks, plus prednisone 10 mg orally daily.
The therapy was as follows: the patient received cabazitaxel 25 mg/m^2 intravenous infusion over 1 hour on day 1 of each 3 week cycle as well as oral prednisone/prednisolone 10 mg daily.
The following dosage regimen was used: cabazitaxel 25 mg/m^2 on day 1 every 3 weeks in combination with prednisone/prednisolone.
This example relates to a patient with metastatic castration resistant prostate cancer not pretreated with chemotherapy. The following therapy was applied: cabazitaxel 25 mg/m^2 intravenously (day 1) every 3 weeks. Prednisone 10 mg PO daily, from day 1 continuously.
This example relates to a patient with metastatic castration resistant prostate cancer not pretreated with chemotherapy, having the following therapy: cabazitaxel 25 mg/m^2 intravenously (day 1) every 3 weeks and prednisone 10 mg PO daily, from day 1 continuously.
This example relates to a patient with metastatic castration resistant prostate cancer not pre-treated with chemotherapy. The following therapy was applied: cabazitaxel 20 mg/m^2 intravenously (day 1) every 3 weeks, prednisone 10 mg PO daily, from day 1 continuously.
The following dosage regimen was applied: cabazitaxel 25 mg/m^2 intravenously every 3 weeks, in combination with oral prednisone or prednisolone 10 mg daily.
The therapy involved the administration of cabazitaxel on day 1 every 3 weeks in combination with prednisone.
The following therapy was applied: cabazitaxel 25 mg/m^2 on day 1 every 3 weeks in combination with prednisolone.
The following dosage regimen was applied: cabazitaxel 20 mg/m^2 intravenously (day 1) every 3 weeks and prednisone 10 mg PO daily, from day 1 continuously.
The following dosage regimen was applied: cabazitaxel 20 mg/m^2 on day 1 every 3 weeks in combination with prednisolone.
The following dosage regimen was applied: cabazitaxel 25 mg/m^2 on day 1 every 3 weeks in combination with prednisone.
The applied dosage regimen was as follows: cabazitaxel 25 mg/m^2 intravenous infusion over 1 hour on day 1 of each 3 week cycle as well as oral prednisone 10 mg daily.

tubulin = details: resulting in inhibition of microtubule depolymerization and tumor cell proliferation; cited from earlier work
[4] = Ex 3, cabazitaxel 25 mg/m^2 + prednisone + budesonide
[5] = Ex 5, cabazitaxel 20 mg/m^2 + prednisone, cycle 4, day 5
[6] = Ex 5, cabazitaxel 20 mg/m^2 + prednisone, during hospitalization
[7] = Ex 7, cabazitaxel 25 mg/m^2 + prednisone
[8] = Ex 7, cabazitaxel 25 mg/m^2 + prednisone, day 9 of first cycle
[9] = Ex 12, cabazitaxel 25 mg/m^2 + prednisone
[10] = Ex 16, cabazitaxel 25 mg/m^2 + prednisolone
[11] = Ex 16, cabazitaxel 25 mg/m^2 + prednisolone, five days after hospitalization
[12] = Ex 20, cabazitaxel 25 mg/m^2 + prednisolone, after intensive care
[13] = Ex 20, cabazitaxel 25 mg/m^2 + prednisolone, on admission

CO[C@H]1C(=O)[C@]2(C)[C@@H](OC)C[C@H]3OC[C@@]3(OC(C)=O)[C@H]2[C@H](OC(=O)c2ccccc2)[C@]2(O)C[C@H](OC(=O)[C@H](O)[C@@H](NC(=O)OC(C)(C)C)c3ccccc3)C(C)=C1C2(C)C [cabazitaxel, 4α-acetoxy-2α-benzoyloxy-5β,20-epoxy-1β-hydroxy-7β,10β-dimethoxy-9-oxo-11-taxen-13α-yl (2R,3S)-3-tert-butoxycarbonyl-amino-2-hydroxy-3-phenylpropionate]
activity in tumor models [1]: active | gastrointestinal adverse reactions reported [2]: Gastrointestinal (GI) hemorrhage and perforation, ileus, colitis, including fatal outcome | control fibrogastroscopy finding ([3]; Ex 1, cabazitaxel 20 mg/m^2 + prednisone, ten days after antisecretory and antiulcer therapy): atrophic gastritis | outcome of event ([3]; Ex 1, cabazitaxel 20 mg/m^2 + prednisone, ten days after onset of epigastric pain): fully recovered | adverse event complained of ([3]; Ex 1, patient, cabazitaxel 20 mg/m^2 every 3 weeks + prednisone 10 mg daily, 15th day of cycle 1): epigastric pain | fibrogastroduodenoscopy finding ([3]; Ex 1, patient, cabazitaxel 20 mg/m^2 every 3 weeks + prednisone 10 mg daily, two days after 15th day of cycle 1): acute ulcer in the small curvature | colonic spasm (grade) ([3]; Ex 2, cabazitaxel 20 mg/m^2 + prednisone, during 7th cycle): grade 2 to grade 1 | outcome of colitis ([3]; Ex 2, cabazitaxel 20 mg/m^2 + prednisone, three days later): recovered | colitis (grade) ([3]; Ex 2, patient, cabazitaxel 20 mg/m^2 every 3 weeks + prednisone 10 mg daily, 75 days after first, 6 days after most recent dose (cycle 4)): 3 | colitis (grade) [3, 4]: 2 | outcome of events [3, 4]: no more episodes of SVT or diarrhea | white blood cell (WBC) ([3]; Ex 3, cabazitaxel 25 mg/m^2 + prednisone + budesonide, 45 days after first dose, normal 4-10): 6.9 | haemoglobin ([3]; Ex 3, cabazitaxel 25 mg/m^2 + prednisone + budesonide, 45 days after first dose, normal 8.5-11): 7.3 | creatinine ([3]; Ex 3, cabazitaxel 25 mg/m^2 + prednisone + budesonide, 45 days after first dose, normal 60-110): 94 | supraventricular tachycardia with angina (grade) ([3]; Ex 3, cabazitaxel 25 mg/m^2 + prednisone + budesonide, 45 days after first, 3 days after most recent dose): 3 | sigmoidoscopy finding ([3]; Ex 3, cabazitaxel 25 mg/m^2 + prednisone + budesonide, six days later): severe colitis | diarrhea ([3]; Ex 3, patient, cabazitaxel 25 mg/m^2 + prednisone 10 mg daily + budesonide 9 mg daily, 43 days after first, 1 day after most recent dose): slight diarrhea | neutropenia ([3]; Ex 4, cabazitaxel 20 mg/m^2 + prednisone, during enterocolitis): no neutropenia | outcome of event ([3]; Ex 4, cabazitaxel 20 mg/m^2 + prednisone, three days later): recovered | enterocolitis (grade) ([3]; Ex 4, patient, cabazitaxel 20 mg/m^2 + prednisone 10 mg, 145 days after first, 7 days after most recent dose (cycle 7)): 3 | gastritis (grade) [3, 5]: 2 | nausea (grade) [3, 5]: 2 | WBC decrease (grade) [3, 6]: 3 | WBC level [3, 6]: 2720 | outcome of events ([3]; Ex 5, cabazitaxel 20 mg/m^2 + prednisone, leukopenia three days after corrective treatment, hypotension, nausea and gastritis one day later): recovered | WBC level ([3]; Ex 5, cabazitaxel 20 mg/m^2 + prednisone, on the day after): 1000 | hypotension (grade) ([3]; Ex 5, patient, cabazitaxel 20 mg/m^2 every 3 weeks + prednisone 10 mg daily, cycle 4, day 5): 2 | pneumonia (grade) ([3]; Ex 6, cabazitaxel 20 mg/m^2 + prednisone, day 7 of cycle 1): 4 | outcome ([3]; Ex 6, cabazitaxel 20 mg/m^2 + prednisone, one day later, due to paralytic ileus and pneumonia): died | paralytic ileus (grade) ([3]; Ex 6, patient, cabazitaxel 20 mg/m^2 every 3 weeks + prednisone, day 4 of cycle 1): 4 | time to recovery from colitis [3, 7]: 9 days | time to recovery from neutropenia [3, 7]: 5 days | diarrhea with blood in feces, number of episodes [3, 8]: more than 10 episodes | neutropenia (grade) [3, 8]: 4 | colitis (grade) ([3]; Ex 7, cabazitaxel 25 mg/m^2 + prednisone, neutropenic colitis, day 9 of first cycle): 3 | absolute neutrophil count ([3]; Ex 7, patient, cabazitaxel 25 mg/m^2 every 3 weeks + prednisone 10 mg, day 9 of first cycle): 0.01 | clostridium difficile infection (grade) ([3]; Ex 8, cabazitaxel 25 mg/m^2 + prednisone/prednisolone): 3 | neutropenia (grade) ([3]; Ex 8, cabazitaxel 25 mg/m^2 + prednisone/prednisolone, 5th day of cycle 1): 3 | outcome ([3]; Ex 8, cabazitaxel 25 mg/m^2 + prednisone/prednisolone, six days later): recovered | neutropenia (grade) ([3]; Ex 8, cabazitaxel 25 mg/m^2 + prednisone/prednisolone, two days later): 4 | diarrhea (grade) ([3]; Ex 8, patient, cabazitaxel 25 mg/m^2 every 3 weeks + prednisone/prednisolone 10 mg daily, 5th day of cycle 1): 2 | outcome ([3]; Ex 9, cabazitaxel 20 mg/m^2 + prednisolone, 5 days after initial hospitalization): death | neutrophil count ([3]; Ex 9, cabazitaxel 20 mg/m^2 + prednisolone, day following admission): 0.4 | neutropenic colitis (grade) ([3]; Ex 9, cabazitaxel 20 mg/m^2 + prednisolone, final diagnosis): 4 | diagnosis at hospitalization ([3]; Ex 9, patient, cabazitaxel 20 mg/m^2 every 3 weeks + prednisolone 10 mg daily, four days after second administration): acute bowel obstruction | neutropenic colitis (grade) ([3]; Ex 10, cabazitaxel 25 mg/m^2 + prednisone): 4 | neutrophil count ([3]; Ex 10, cabazitaxel 25 mg/m^2 + prednisone, one day later, normal 1.4-7.7): 1e+08 L⁻¹ | fever (grade) ([3]; Ex 10, cabazitaxel 25 mg/m^2 + prednisone, readmission two days after discharge): 1 | outcome of event ([3]; Ex 10, cabazitaxel 25 mg/m^2 + prednisone, three days after readmission): resolved | diarrhea (grade) ([3]; Ex 10, patient, cabazitaxel 25 mg/m^2 every 3 weeks + prednisone 10 mg daily, 7 days after first cycle): 2 | diagnosis ([3]; Ex 11, cabazitaxel 20 mg/m^2 + prednisone/prednisolone, nine days after last dose): Neutropenic infection (colitis) | platelet count ([3]; Ex 11, cabazitaxel 20 mg/m^2 + prednisone/prednisolone, nine days after last dose, NR 150×10^3-450×10^3): 93 ×10^3 cells/mm^3 | CRP ([3]; Ex 11, cabazitaxel 20 mg/m^2 + prednisone/prednisolone, nine days after last dose, NR <0.5): 0.39 mg/dL | neutrophils ([3]; Ex 11, cabazitaxel 20 mg/m^2 + prednisone/prednisolone, nine days after last dose, normal 1.7×10^3-8.0×10^3): 1.12 ×10^3 cells/mm^3 | outcome ([3]; Ex 11, cabazitaxel 20 mg/m^2 + prednisone/prednisolone, two days after admission): recovered | WBC ([3]; Ex 11, patient, cabazitaxel 20 mg/m^2 every 3 weeks + prednisone/prednisolone, nine days after last dose, normal 3.5×10^3-10.5×10^3): 2.41 ×10^3 cells/mm^3 | enterocolitis (grade) [3, 9]: 4 | febrile neutropenia (grade) [3, 9]: 4 | renal failure (grade) [3, 9]: 4 | septic shock (grade) [3, 9]: 4 | outcome ([3]; Ex 12, cabazitaxel 25 mg/m^2 + prednisone, 2 days after admission, septic shock secondary to neutropenic enterocolitis): expired | fever ([3]; Ex 12, cabazitaxel 25 mg/m^2 + prednisone, 13 days after first dose): 38.5 °C | lower abdominal pain (grade) ([3]; Ex 12, patient, cabazitaxel 25 mg/m^2 every 3 weeks + prednisone 10 mg daily, 13 days after first dose): 3 | outcome ([3]; Ex 13, cabazitaxel 25 mg/m^2 + prednisone/prednisolone, cause of death reported as progression of disease): died | diagnosis at hospitalization ([3]; Ex 13, patient, cabazitaxel 25 mg/m^2 every 3 weeks + prednisone/prednisolone 10 mg daily, ten days after first cycle): neutropenic enterocolitis and sepsis | outcome ([3]; Ex 14, cabazitaxel 25 mg/m^2 + prednisone, nine days after hospitalization): recovered | adverse event ([3]; Ex 14, patient, cabazitaxel 25 mg/m^2 every 3 weeks + prednisone, 232 days after first, 14 days after most recent dose (cycle 9)): neutropenic enteritis | outcome ([3]; Ex 15, cabazitaxel 25 mg/m^2 + prednisone, 4 days later): recovered | video coloscopy finding ([3]; Ex 15, cabazitaxel 25 mg/m^2 + prednisone, bacteriological tests later negative): probable infectious colitis | rectal bleeding (grade) ([3]; Ex 15, cabazitaxel 25 mg/m^2 + prednisone, cycle 6, 111 days after first, 6 days after last administration): 1 | diarrhea (grade) ([3]; Ex 15, patient, cabazitaxel 25 mg/m^2 every 3 weeks + prednisone 10 mg daily, 108 days after first administration): 1 | SAH (subarachnoid hemorrhage) (grade) [3, 10]: 2 | urinary tract infection (grade) [3, 10]: 3 | gastritis, final diagnosis (grade) ([3]; Ex 16, cabazitaxel 25 mg/m^2 + prednisolone, day 17 of cycle 1): 3 | DIC (grade) [3, 11]: 4 | INR [3, 11]: 1.6 | outcome of gastritis ([3]; Ex 16, cabazitaxel 25 mg/m^2 + prednisolone, three days later): recovered | ulcus ventriculi, initial suspicion (grade) ([3]; Ex 16, patient, cabazitaxel 25 mg/m^2 every 3 weeks + prednisolone 10 mg, day 17 of cycle 1): 3 | outcome ([3]; Ex 17, cabazitaxel 20 mg/m^2 + prednisone, seven days after hospitalization): recovered | adverse event (confirmed by emergency surgery) ([3]; Ex 17, patient, cabazitaxel 20 mg/m^2 every 3 weeks + prednisone 10 mg daily, 42 days after first, 21 days after most recent dose, life-threatening): perforation of ulcer | outcome of duodenal ulcers ([3]; Ex 18, cabazitaxel 25 mg/m^2 + prednisone or prednisolone): recovered | acute cystitis (grade) ([3]; Ex 18, cabazitaxel 25 mg/m^2 + prednisone or prednisolone, day 26 of cycle 1): 1 | duodenal ulcers (grade) ([3]; Ex 18, patient, cabazitaxel 25 mg/m^2 every 3 weeks + prednisone or prednisolone 10 mg daily, four days after day 16 of cycle 1): 1 | haematocrit ([3]; Ex 19, cabazitaxel + prednisone, 128 days after first dose, reference 42-52): 16.33% | digestive haemorrhage (grade) ([3]; Ex 19, cabazitaxel + prednisone, 128 days after first, 20 days after last dose, life threatening): 4 | outcome ([3]; Ex 19, cabazitaxel + prednisone, discharged 9 days after hospitalization): recovered | haemoglobin ([3]; Ex 19, patient, cabazitaxel every 3 weeks + prednisone, 128 days after first, 20 days after last dose, reference 13.0-16.0): 51.2 g/L | haematocrit [3, 12]: 19.5% | haemoglobin [3, 12]: 72 g/L | platelets [3, 12]: 142 ×10^9 | outcome ([3]; Ex 20, cabazitaxel 25 mg/m^2 + prednisolone, fifteen days after hospitalization): recovered | haematocrit [3, 13]: 19% | haemoglobin [3, 13]: 59 g/L | platelet ([3]; Ex 20, cabazitaxel 25 mg/m^2 + prednisolone, thirteen days after hospitalization, units not specified, 180-320 thousand in 1 mcl): 122 | intestinal haemorrhage (grade) ([3]; Ex 20, patient, cabazitaxel 25 mg/m^2 every 3 weeks + prednisolone, 17 days after first dose, life threatening): 4 | adverse event during hospital stay ([3]; Ex 21, cabazitaxel 20 mg/m^2 + prednisone): febrile neutropenia | outcome ([3]; Ex 21, cabazitaxel 20 mg/m^2 + prednisone, one day after discharge): recovered | small bowel obstruction (grade) ([3]; Ex 21, patient, cabazitaxel 20 mg/m^2 every 3 weeks + prednisone 10 mg daily, cycle 2, most likely secondary to adhesions): 4 | outcome ([3]; Ex 22, cabazitaxel 20 mg/m^2 + prednisolone, three days later, after laproscopy): recovered | small intestinal obstruction (grade) ([3]; Ex 22, patient, cabazitaxel 20 mg/m^2 every 3 weeks + prednisolone, cycle 9, 181 days after first, 13 days after most recent dose): 3 | general weakness (grade) ([3]; Ex 23, cabazitaxel 25 mg/m^2 + prednisone): 3 | red blood loss per anum (grade) ([3]; Ex 23, cabazitaxel 25 mg/m^2 + prednisone, 85 days after first, 1 day after most recent dose): 1 | outcome ([3]; Ex 23, cabazitaxel 25 mg/m^2 + prednisone, 117 days after first dose, due to disease progression): died | pathologic fracture lumbar spine 1 (grade) ([3]; Ex 23, cabazitaxel 25 mg/m^2 + prednisone, five days after day 95): 3 | outcome of red blood loss per anum and hematuria ([3]; Ex 23, cabazitaxel 25 mg/m^2 + prednisone, two days after hospitalization): recovered | hematuria (grade) ([3]; Ex 23, patient, cabazitaxel 25 mg/m^2 every 3 weeks + prednisone, 85 days after first, 1 day after most recent dose): 3 | outcome ([3]; Ex 24, cabazitaxel 25 mg/m^2 + prednisone, about a month after hospitalization, unknown cause, colitis ongoing): died | time to resolution of ileus ([3]; Ex 25, cabazitaxel 20 mg/m^2 + prednisone): 13 days | mechanical ileus due to unclear cause (grade) ([3]; Ex 25, cabazitaxel 20 mg/m^2 + prednisone, 215 days after first, 6 days after most recent dose): 2 | diagnosis ([3]; Ex 25, patient, cabazitaxel 20 mg/m^2 every 3 weeks + prednisone 10 mg daily, 214 days after first dose): ileus | action on tubulin (tubulin): binds to and stabilizes tubulin
